# Test results: patent US6583164B1, “Antimycotic drug composition” (Takeda Chemical Industries, Ltd., priority 1998, dated 2003)
# Tested on: A. fumigatus TIMM1728
# Test: Defensive effect against experimental Aspergillosis infection in neutropenic mice (prolonging life)
# Format: in vivo
# Conditions: CDF1 female mice made neutropenic with cyclophosphamide; intravenous administration, 5 times; survival recorded for 10 days after infection
# Experimental: Method: 6-week-old CDF1 female mice (n=5) were allowed to have neutropenia by intraperitoneally administering 200 mg/kg of cyclophosphamide, and after 4 days, 0.2 ml liquid of frozen and stored A. fumigatus TIMM1728 conidia, diluted 1000-fold, was inoculated into the tail veins of the mice (6×10^4 CFU/mouse). Compound 12 was dissolved in 5% saccharide solution (aqueous glucose solution) and intravenously administered into the mice 5 times, that is, once in 2 hours after the infection and daily twice for 2 days after the infection. The number of living mice was recorded for 10 days after the infection, to evaluate the effect of prolonging their life.
substance,measurement,value
"4-acetoxymethyl-1-[(2R,3R)-2-(2,4-difluorophenyl)-2-hydroxy-3-[2-oxo-3-[4-(1H-tetrazol-1-yl)phenyl]-1-imidazolidinyl]butyl]-1H-1,2,4-triazolium chloride [Compound 12]",Defensive effect (ED50),1.7 mg/kg
